Test results reported in article PMC4849654, “A High-Throughput Cell-Based Screen Identified a 2-[(E)-2-Phenylvinyl]-8-Quinolinol Core Structure That Activates p53” (PLoS ONE, 2016).
Where a SMILES comes first, the peptide text is derived from it. The star is where a group is joined. Cbz = O=C(OCc1ccccc1)*

Columns and labels:
[1] = system: proteasome chymotrypsin-like activity; test: Proteasome-Glo chymotrypsin-like activity; assay type: cell-based; details: C33a cells, 2 hrs, 10 μM or 30 μM
[2] = system: proteasome trypsin-like activity; test: Proteasome-Glo trypsin-like activity; assay type: cell-based; details: C33a cells, 2 hrs, 10 μM or 30 μM
p53-Luc [3] = test: TE6 p53-Luc targeted degradation reporter in C33a cells; assay type: cell-based; details: C33a cells expressing p53-Luc and TE6
Protocol: Adenoviruses were generated using the RAPAd CMV adenoviral expression system (Cellbiolabs, San Diego, CA). High-throughput screening was performed at the University of Illinois High-Throughput Screening Facility. For each group, 1x 10^7 C33a cells were plated in 150 mm^2 dishes in 20 ml cDMEM. For p53xTE6 group, 1 x 10^8 GFU/mL of p53-Luc adenovirus and 1 x 10^9 GFU/mL TE6 adenovirus were plated. For RbxTE7 group, 1 x 10^8 GFU/mL of p60RbRen adenovirus and 1 x 10^9 GFU/mL of βTrCP-E7 adenovirus were added. For control group, Ad-Red was substituted for TE6 or TE7 adenovirus in the p53 control and Rb control, respectively. […] Positive hits were scored as ≥ 2-fold above vehicle treated p53-Luc wells.
For the in vitro assay, E6 was cloned into the pMAL vector in frame with the maltose binding protein. […] We measured luciferase activity after 30 minutes. For the trypsin and chymotrypsin assay, C33a cells were incubated for 2 hours with the indicated compounds at 10 μM and assessed for chymotrypsin and trypsin activity using Proteasome-Glo assay (Promega). […] After incubation, cells were lysed and luciferase activity measured and p53 levels measured by Western blot.

HeLa cells = test: Cell viability (Cell Titer Glo), HeLa; assay type: cell-based; details: for IC50: HeLa cells, 48 hrs, Cell Titer Glo
Protocol: (§1) For the viability assays, 20,000 C33a, HeLa, or siHA cells were plated in white 96 well flat bottom plates. The cells were treated with compounds at concentrations from 0.5 to 30 μM for 48 hrs. After incubation, Cell Titer Glo (Promega) was added to the cells and luminescence read in a Tecan II plate reader. For annexin V and PI staining, 500,000 C33a cells were treated with inhibitor for 24 hrs. The cells were stained with Annexin V-FITC and PI according to eBioscience manufacturer’s instructions and analyzed by flow cytometry.

C33a cells [4] = test: Cell viability (Cell Titer Glo), C33a; assay type: cell-based; details: for IC50: C33a cells, 48 hrs, Cell Titer Glo
Protocol: as §1

C33a cells [5] = test: Cell viability after p53 siRNA knockdown; assay type: cell-based; details: p53 siRNA vs scrambled, 10 μM, 48 hrs
Protocol: C33a cells were transfected with 100 pmol siRNA for p53 (Dharmacon, L-003329-00-0005) or AllStar control (Qiagen) using lipofectamine2000 according to manufacturer’s instructions. The cells were incubated for 24 hrs and then split and incubated with 10 μM compounds. Cell viability was measured after 48 hours by Cell Titer Glo. Efficiency of knockdown was determined by quantitative RT-PCR using SYBR green.

p53 [6] = target: T1, p53 (Homo sapiens, UniProt P04637, R273C); test: p53 nuclear localization by immunofluorescence; assay type: cell-based; details: C33a cells, 30 μM, 8 hrs
T1 construct: endogenous in cells; host or cells: C33a
Protocol: C33a cells were plated into chamber slides and treated with 30 μM of compounds 3 or, 4 for 4, or 8 hours. As a control, 30 μM cisplatin was used. The cells were fixed with 2.5% formaldehyde for 30 minutes, followed by permeabilization with 0.01% Triton X100 for 30 minutes. Cells were blocked with 5% goat serum for 30 minutes and stained overnight with anti-p53 (Santa Cruz, antibody FL-303) or anti-phospho-H2A.X (cell signaling) in 1% FCS in PBS at 4°. The following day, the cells were washed with PBS and incubated for 45 minutes with anti-rabbit-FITC and DAPI in 1% FCS in PBS. The cells were washed and mounted with ProLong Gold.

p53-Luc [7] = test: In vitro E6 degradation assay (recombinant E6 with p53-Luc lysates); assay type: biochemical; details: 50 ng recombinant E6, 10 μM compound, C33a lysates, 6 hours
Protocol: For the in vitro assay, E6 was cloned into the pMAL vector in frame with the maltose binding protein. The E6 was expressed in bacteria and purified on amylose column. C33a cells were transfected with p53-Luc and incubated overnight. 50 ng recombinant E6 was incubated with 10 μM compound and C33a lysates for 6 hours at 30 degrees. We measured luciferase activity after 30 minutes. For the trypsin and chymotrypsin assay, C33a cells were incubated for 2 hours with the indicated compounds at 10 μM and assessed for chymotrypsin and trypsin activity using Proteasome-Glo assay (Promega). For the in vivo degradation assay, C33a cells expressing Ad-TE6 and Ad-p53 or expressing Ad-TE7 and Ad-Rb-Ren were treated for 8 hours with compounds. After incubation, cells were lysed and luciferase activity measured and p53 levels measured by Western blot.

p21, BAX and FAS = test: p53 target gene expression (p21, BAX, FAS) by qRT-PCR; assay type: cell-based; details: HeLa cells, 8h
Excerpt: (§2) RNA from C33a and HeLa was isolated by Trizol and reverse transcribed using the first strand synthesis kit from NEB. Primers for p53, GAPDH and PUMA were used for quantitative real-time PCR (qRT-PCR). Primer sequences include: PUMA (forward primer: CTCAACGCACAGTACGAG and reverse primer: […]), FAS (forward primer: TCTGCCATAAGCCCTGT and reverse primer: GTCTGTGTACTCCTTCCCT), p21 (forward primer: […] and reverse primer: […]), and BAX (forward primer: […] and reverse primer: […]). ΔΔCt values were determined for PUMA using GAPDH to normalize data. Bio-rad SYBR green was used for the amplification and detection of the PCR products on an iCycler (Bio-rad).

PUMA = PUMA transcription by qRT-PCR; assay type: cell-based; details: 30 μM, 8h
Excerpt: as §2

siHA cells = test: Cell viability (Cell Titer Glo), siHA; assay type: cell-based; details: 48h
Protocol: as §1

p53 [8] = target: T1, p53; test: Nuclear/cytoplasmic fractionation and Western analysis of p53; assay type: cell-based; details: C33a cells, 6 hrs, Western
Protocol: For nuclear/cytoplasmic fractionation, 1 × 10^7 C33a cells were treated with 30 μM compound for 6 hrs. The cells were washed with PBS and lysed in 1000 μL of cytoplasmic extraction buffer (10 mM KCl, 10 mM HEPES, pH 7.9, 0.1 mM EDTA, 1 mM dithiothreitol) and incubated on ice for 20 min. 50 μL of 10% NP-40 was added to each lysate, vortexed and then centrifuged at 12,000 × g for 10 min. The cytosolic fraction was collected and the pellet containing the nuclei suspended in 50 μL of nuclear extraction buffer (0.4 M NaCl, 20 mM HEPES, pH 7.9, 1 mM EDTA). The nuclear fraction was incubated for 30 min on ice. The samples were spun at 14,000 × g for 10 min and the supernatants were collected. To concentrate the cytoplasmic fraction, 500 μL methanol, and 200 μL chloroform were added and the samples were vortexed, centrifuged for 10 min at 14,000 × g, and the upper and lower layer were discarded. The solid interphase was collected and suspended in 50 μL of lysis buffer. Equal cell equivalents were loaded on a gel and electrophoresed. For whole cell lysates, C33a cells were lysed with a modified RIPA buffer and subjected to SDS-PAGE electrophoresis. The gels were transferred to nitrocellulose and blots probed with antibodies for p53 (Santa Cruz, antibody FL-303), lamin A/C, and calnexin (Santa Cruz Biotechnology).

Row | SMILES | chymotrypsin-like proteasome activity [1] | trypsin-like proteasome activity [2] | restoration of p53-Luc luciferase activity (p53-Luc [3]) | IC50 (HeLa cells) [µM] | IC50 (C33a cells [4]) [µM] | expression of p21, BAX and FAS (p21, BAX and FAS) | other results
1 | CC(C)C[C@@H](C=O)NC(=O)[C@H](CC(C)C)NC(=O)[C@H](CC(C)C)NC(=O)OCc1ccccc1 [MG132, reference compound] (Cbz-Leu-Leu-Leu-aldehyde) | significantly inhibited | significantly inhibited | – | – | – | – | –
2 | OCc1ccc(-c2ccc(-c3ccc(CO)s3)o2)s1 [RITA] | – | – | did not restore p53-Luc activity | – | – | – | –
3 | CC(C)C[C@H](NC(=O)[C@H](Cc1ccccc1)NC(=O)c1cnccn1)B(O)O [bortezomib] | – | – | restored p53-Luc luciferase activity | – | – | – | –
4 | N.N.[Cl][Pt][Cl] [cisplatin, reference compound] | – | – | – | 4.6 | 24 | – | –
5 | Cc1cccc(/C=C/c2ccc3cccc(O)c3n2)c1O [compound 3] | did not significantly reduce | did not significantly reduce | – | 6 | 3.8 | induced expression | effect of p53 gene knockdown on C33a sensitivity to compound (C33a cells [5]): significantly reversed; p53 nuclear accumulation, % of cell nuclei (p53 [6]): 51.1±2.18 % of cell nuclei; restoration of p53 levels in vitro (p53-Luc [7]): restored p53 levels in vitro to similar levels as the proteasome inhibitor MG132; cell viability at 30 μM (HeLa cells; HeLa, 30 μM, 48h): decreased viability; PUMA transcription upregulation (PUMA; C33a cells): 3.92±0.27 fold; PUMA transcription upregulation (PUMA; HeLa cells): 4.35±0.22 fold; cell viability at 30 μM (C33a cells [4]; C33a, 30 μM, 48h): decreased viability; cell viability at 30 μM (siHA cells): decreased viability; nuclear accumulation of p53 in nuclear fraction compared to vehicle (p53 [8]): higher levels of nuclear accumulation of p53
6 | COc1cc(/C=C/c2ccc3cccc(O)c3n2)cc(Br)c1OC [compound 37] | – | – | – | – | – | induced expression | –
